Test results reported in PMC5705954, “Investigation of Non-Covalent Interactions of Aflatoxins (B1, B2, G1, G2, and M1) with Serum Albumin” (Toxins, 2017).
Where two headings read alike, the source gives them in different places.

Legend:
[1] = biological target: T1, human serum albumin (HSA) (Homo sapiens, UniProt P02768); set-up: purchased Sigma-Aldrich; settings: cited from earlier work
[2] = biological target: warfarin-HSA interaction (Sudlow's Site I) (Homo sapiens, UniProt P02768); format: binding
warfarin-HSA interaction (Sudlow's Site I), sequence (P02768 25-609 limits assumed): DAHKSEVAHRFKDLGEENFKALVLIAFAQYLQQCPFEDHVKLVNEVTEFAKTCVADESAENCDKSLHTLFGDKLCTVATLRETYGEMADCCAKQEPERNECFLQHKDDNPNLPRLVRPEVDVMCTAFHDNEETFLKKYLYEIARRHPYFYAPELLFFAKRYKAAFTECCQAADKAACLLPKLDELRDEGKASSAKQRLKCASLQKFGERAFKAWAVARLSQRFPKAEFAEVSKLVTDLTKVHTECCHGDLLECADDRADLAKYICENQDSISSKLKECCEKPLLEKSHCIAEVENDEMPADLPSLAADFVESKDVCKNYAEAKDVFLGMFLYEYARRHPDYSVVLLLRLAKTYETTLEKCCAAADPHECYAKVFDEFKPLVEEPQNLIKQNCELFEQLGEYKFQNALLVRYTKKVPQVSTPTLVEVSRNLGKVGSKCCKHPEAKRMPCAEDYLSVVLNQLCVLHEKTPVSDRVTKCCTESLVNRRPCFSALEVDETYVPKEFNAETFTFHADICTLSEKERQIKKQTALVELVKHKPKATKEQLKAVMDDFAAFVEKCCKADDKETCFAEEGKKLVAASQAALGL

[3] = biological target: T1, human serum albumin (HSA); test: Fluorescence quenching of HSA by aflatoxins; format: binding; set-up: purchased Sigma-Aldrich; settings: pH 7.4
Description: In order to characterize aflatoxin-HSA interactions, fluorescence quenching studies were performed. Increasing aflatoxin concentrations (0–10 μM) were added to a standard amount of HSA (2 μM) then fluorescence emission spectra of HSA were recorded (λexc = 280 nm). […] To exclude the possible involvement of the inner filter effect, fluorescence emission intensities were corrected based on the absorbance of aflatoxins (Equation (1)). […].
Fluorescence measurements were performed employing Hitachi F-4500 fluorescence spectrophotometer. UV-Vis spectra were recorded applying Specord Plus 210 (Analytic Jena AG, Jena, Germany) spectrophotometer. All measurements were carried out at 25 °C.
During fluorescence quenching experiments, emission intensities of albumin were determined in the presence of 2 μM albumin with and without aflatoxins (0–10 μM) using 280 and 334 nm as excitation and emission wavelengths, respectively. Inner filter effects of aflatoxins were eliminated applying the following equation [33]:(1) Icor=Iobs×e^(Aexc+Aem)/2 where Icor and Iobs are the corrected and observed fluorescence emission intensities, respectively; while Aexc and Aem are the absorption of aflatoxins at 280 and 334 nm, respectively.
Complex formations of aflatoxins with albumins were investigated applying the Stern-Volmer equation:(2) I0/I=1+KSV×[Q] where I and I0 denote the fluorescence intensities of albumin with and without aflatoxins, respectively. KSV (with the unit of dm^3/mol) is the Stern-Volmer quenching constant and [Q] is the molar concentration of aflatoxins.
Association constants (Ka) and number of binding sites (n) were determined by linear fitting, employing the double logarithmic Stern-Volmer equation [33]:(3) log(I0−I)/I=logKa+n×log[Q] where I and I0 denote the fluorescence intensities of albumin with and without aflatoxins, respectively; while [Q] is the molar concentration of aflatoxins.
Thereafter, binding constants of aflatoxin-albumin complexes were quantified by Hyperquad2006 program package, assuming 1:1 stoichiometry, (4) I=I0+(IHG−I0)/2⋅[H]0⋅([H]0+[G]0+1/K−([H]0+[G]0+1/K)^2−4⋅[H]0⋅[G]0) where, I0 and I denote the emission intensities of albumin at 334 nm in the absence and presence of aflatoxins, respectively; IHG is the emission intensity of pure aflatoxin-albumin complex at 334 nm (calculated by the Hyperquad2006); K denotes the binding constant (with the unit of dm^3/mol); [H]0 and [G]0 are the total concentrations of albumin and aflatoxin, respectively.

[4] = biological target: T1, human serum albumin (HSA); settings: cited from earlier work
rat serum albumin (RSA) = rat serum albumin (RSA) (Rattus norvegicus, UniProt P02770); format: binding; settings: pH 7.4
rat serum albumin (RSA), sequence (P02770 25-608 limits assumed): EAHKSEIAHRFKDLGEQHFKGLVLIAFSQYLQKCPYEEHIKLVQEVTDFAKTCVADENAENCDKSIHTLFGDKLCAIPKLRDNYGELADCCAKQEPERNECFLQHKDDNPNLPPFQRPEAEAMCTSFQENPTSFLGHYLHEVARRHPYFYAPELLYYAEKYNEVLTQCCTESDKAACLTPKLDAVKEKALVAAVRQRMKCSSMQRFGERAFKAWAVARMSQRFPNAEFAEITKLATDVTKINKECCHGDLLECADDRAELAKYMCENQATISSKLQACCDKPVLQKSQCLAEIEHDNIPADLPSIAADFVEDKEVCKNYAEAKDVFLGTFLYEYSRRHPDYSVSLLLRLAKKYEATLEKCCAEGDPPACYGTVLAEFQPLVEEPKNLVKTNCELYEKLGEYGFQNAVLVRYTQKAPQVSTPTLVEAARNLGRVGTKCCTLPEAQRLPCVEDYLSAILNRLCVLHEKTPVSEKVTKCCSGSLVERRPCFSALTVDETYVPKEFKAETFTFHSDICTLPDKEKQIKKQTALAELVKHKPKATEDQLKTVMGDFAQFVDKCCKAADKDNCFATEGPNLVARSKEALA

[5] = biological target: porcine serum albumin (PSA) (Sus scrofa, UniProt P08835); format: binding; settings: pH 7.4
porcine serum albumin (PSA), sequence (P08835 25-607 limits assumed): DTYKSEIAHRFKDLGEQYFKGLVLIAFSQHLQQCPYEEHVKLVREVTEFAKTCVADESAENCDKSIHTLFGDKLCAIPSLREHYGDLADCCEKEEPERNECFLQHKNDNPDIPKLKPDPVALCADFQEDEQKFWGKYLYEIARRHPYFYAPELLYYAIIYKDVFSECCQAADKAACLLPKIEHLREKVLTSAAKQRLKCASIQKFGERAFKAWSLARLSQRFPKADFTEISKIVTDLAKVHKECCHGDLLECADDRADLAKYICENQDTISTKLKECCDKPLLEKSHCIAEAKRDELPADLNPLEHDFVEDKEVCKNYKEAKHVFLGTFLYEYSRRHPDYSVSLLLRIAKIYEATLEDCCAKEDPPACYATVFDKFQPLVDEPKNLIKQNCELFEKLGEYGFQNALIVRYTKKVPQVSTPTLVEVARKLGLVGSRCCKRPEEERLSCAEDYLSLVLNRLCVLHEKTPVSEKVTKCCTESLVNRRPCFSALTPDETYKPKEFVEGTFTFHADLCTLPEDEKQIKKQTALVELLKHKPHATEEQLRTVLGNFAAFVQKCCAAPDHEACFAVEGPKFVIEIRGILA

[6] = biological target: bovine serum albumin (BSA) (Bos taurus, UniProt P02769); format: binding; settings: pH 7.4
bovine serum albumin (BSA), sequence (P02769 25-607 limits assumed): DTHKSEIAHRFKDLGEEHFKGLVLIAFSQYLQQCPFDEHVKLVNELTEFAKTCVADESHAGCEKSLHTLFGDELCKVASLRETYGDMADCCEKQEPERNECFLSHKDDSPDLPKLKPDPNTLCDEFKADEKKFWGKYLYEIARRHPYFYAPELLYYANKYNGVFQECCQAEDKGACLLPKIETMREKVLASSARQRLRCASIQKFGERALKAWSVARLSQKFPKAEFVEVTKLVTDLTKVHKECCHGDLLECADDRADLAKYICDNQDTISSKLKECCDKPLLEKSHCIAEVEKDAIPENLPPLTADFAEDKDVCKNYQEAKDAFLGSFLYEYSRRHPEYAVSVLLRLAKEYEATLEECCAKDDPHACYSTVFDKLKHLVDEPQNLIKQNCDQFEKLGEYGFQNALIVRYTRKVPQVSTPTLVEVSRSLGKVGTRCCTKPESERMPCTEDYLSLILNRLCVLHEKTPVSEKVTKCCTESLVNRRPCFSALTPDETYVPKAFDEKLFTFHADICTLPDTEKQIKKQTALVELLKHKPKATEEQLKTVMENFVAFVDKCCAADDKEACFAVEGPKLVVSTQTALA

[7] = biological target: T1, human serum albumin (HSA); test: Thermodynamic studies (van't Hoff) of complex formation with HSA; format: binding; set-up: purchased Sigma-Aldrich
Description: In order to investigate the temperature dependence of AFB1-HSA interaction, binding constants were determined between 25 and 40 °C. […] Using the temperature-dependence of the stability constants, the thermodynamic parameters associated to the interaction of AFB1 with HSA was also determined using the van’t Hoff equation (Equation (5)). […]. This value is within the typical range of non-covalent interactions. ΔH and ΔS values of the AFB1-HSA complex formation were −10.48 kJ mol^−1 and 55.1 JK^−1 mol^−1, respectively. Comparing these values with the parameters obtained for previously examined mycotoxin-albumin complexes, namely citrinin-HSA and zearalenone-HSA (Table 1), we can conclude that the smaller enthalpy change is associated with higher entropy gain in agreement with the enthalpy-entropy compensation. […]
Fluorolog τ3 spectrofluorometric system (Jobin-Yvon/SPEX) was applied during thermodynamic studies using 280 nm excitation wavelength. […] The binding constants were determined by the Hyperquad2006 program package (Equation (4)). The enthalpy and entropy changes of complex formation between AFB1 and HSA molecules were calculated as follows: the logarithms of binding constants (logK) at different temperatures were plotted against the reciprocal temperature according to the van’t Hoff equation. […]

[8] = previously reported data ref 16
[9] = previously reported data ref 20

T1 sequence (P02768 25-609): as the sequence (P02768 25-609 limits assumed) above

Compound	effect on fluorescence signal of HSA-bound warfarin at 379 nm (displacement of WAR from HSA) [2]	logK (binding constant) [3]	logKSV (Stern-Volmer quenching constant) [3]	logKa (association constant) [3]	n (number of binding sites) [3]	other results
CC1=C2C(=CO[C@H](C)[C@H]2C)C(O)=C(C(=O)O)C1=O [citrinin]						ΔG (298.16 K) of complex formation with HSA [1, 8]: -29.96 kJ/mol; ΔH of complex formation with HSA [1, 8]: -24.15 kJ/mol; ΔS of complex formation with HSA [1, 8]: 20.90 JK^−1 mol^−1
COc1cc2c(c3oc(=O)c4c(c13)CCOC4=O)C1C=COC1O2 (stereo not shown) [AFG1, aflatoxin G1]	Very similar spectroscopic changes	4.58 ± 0.01	4.33 ± 0.04	4.43 ± 0.03	1.020 ± 0.019	
CN(C)c1ccc(N=Nc2ccc(S(=O)(=O)[O-])cc2)cc1.[Na+] [MO, methyl orange]						logK of MO-HSA complex [4]: ~ 5
COc1cc2c(c3oc(=O)c4c(c13)CCC4=O)[C@@]1(O)C=CO[C@H]1O2 [AFM1, aflatoxin M1]	considerably decreased the fluorescence intensity of WAR at 379 nm	4.52 ± 0.01	4.28 ± 0.01	4.26 ± 0.00	1.004 ± 0.013	
C[C@H]1CCCC(=O)CCC/C=C/c2cc(O)cc(O)c2C(=O)O1 [zearalenone]						ΔG (298.16 K) of complex formation with HSA [1, 9]: -29.06 kJ/mol; ΔH of complex formation with HSA [1, 9]: -30.09 kJ/mol; ΔS of complex formation with HSA [1, 9]: −3.50 JK^−1 mol^−1
COc1cc2c(c3oc(=O)c4c(c13)CCC4=O)[C@H]1C=CO[C@H]1O2 [AFB1, aflatoxin B1]	significant decrease of the fluorescence signal at 379 nm	4.65 ± 0.01	4.44 ± 0.06	4.46 ± 0.08	1.005 ± 0.029	logK (binding constant) (rat serum albumin (RSA)): 4.91 ± 0.01; logKSV (Stern-Volmer quenching constant) (rat serum albumin (RSA)): 4.82 ± 0.01; logKa (association constant) (rat serum albumin (RSA)): 4.90 ± 0.11; n (number of binding sites) (rat serum albumin (RSA)): 0.998 ± 0.051; logK (binding constant) [5]: 4.62 ± 0.01; logKSV (Stern-Volmer quenching constant) [5]: 4.45 ± 0.00; logKa (association constant) [5]: 4.52 ± 0.10; n (number of binding sites) [5]: 1.023 ± 0.034; logK (binding constant) [6]: 4.63 ± 0.01; logKSV (Stern-Volmer quenching constant) [6]: 4.41 ± 0.06; logKa (association constant) [6]: 4.44 ± 0.01; n (number of binding sites) [6]: 1.006 ± 0.015; ΔG (298.16 K) of complex formation with HSA [7]: -26.90 kJ/mol; ΔH of complex formation with HSA [7]: -10.48 kJ/mol
COc1cc2c(c3oc(=O)c4c(c13)CCOC4=O)[C@@H]1CCO[C@@H]1O2 [AFG2, aflatoxin G2]	considerably decreased the fluorescence intensity of WAR at 379 nm	4.34 ± 0.01	3.96 ± 0.04	4.04 ± 0.07	1.017 ± 0.025	
COc1cc2c(c3oc(=O)c4c(c13)CCC4=O)[C@@H]1CCO[C@@H]1O2 [AFB2, aflatoxin B2]	considerably decreased the fluorescence intensity of WAR at 379 nm	4.55 ± 0.01	4.21 ± 0.02	4.40 ± 0.08	1.054 ± 0.000	
